{
  "source": "patent US10626103B2",
  "about": "“Inhibitor of lysine specific demethylase-1” (CELGENE QUANTICEL RESEARCH, INC., priority 2014, dated 2020)",
  "key": {"[1]": {"test_system": "Kasumi-1 AML cancer cell line", "assay": "Kasumi-1 AML cell line proliferation assay (Cell-MTS assay)", "type": "cell-based", "conditions": "Homo sapiens, Kasumi-1 cells, 168 hours", "from_the_text": "Colorimetric cellular assay to assess the ability of LSD-1 small molecule inhibitors to effect the proliferation of the established AML cancer cell line Kasumi-1.\nThis Cell-MTS assay is a 7-day plate based colorimetric assay which quantifies the amount of newly generated NADH in the presence and absence of test compound. These NADH levels are used as a proxy for the quantification of cancer cell proliferation.\nThe established cancer cell line Kasumi-1 with a verified p53 mutation were purchased from American Type Culture Collection (ATCC) and routinely passaged according to ATCC published protocols. For routine assay these cells were seeded at a density of 20,000 cells per 96-well. 24 hours after plating, cells received an 11 point dilution of test compound with final concentration ranges from 100 LM to 2.0 nM. Cells are incubated in the presence of compound for 168 hours at 37° C., 5% CO2. At the end of this compound incubation period, 80 μl of media is removed and 20 μL of CellTiter 96® AQueous Non-Radioactive Cell Proliferation Assay solution (Promega) is added. The cells are incubated until the OD490 is >0.6. IC50 values are calculated using the IDBS XLfit software package and include background subtracted OD490 values and normalization to DMSO controls.\nTable 5 provides the Kasumi-1 cellular IC50 values of various substituted heterocyclic compounds disclosed herein."}, "[2]": {"test_system": "CD11b expression in THP-1 (AML) cells", "assay": "LSD1 CD11b cellular assay (flow cytometry)", "type": "cell-based", "conditions": "Homo sapiens, 96 h, THP-1 cells, 4 days", "how_it_was_run": "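THP-1 cells were exposed to serially diluted compounds (0.2% DMSO final) for 4 days at 37 °C. CD11b expression was measured by flow cytometry with DAPI staining. The percent of CD11b-positive cells per concentration gave the IC50 curve.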"}, "full-length human LSD1": {"molecular_target": "full-length human LSD1 (Homo sapiens (Human), UniProt O60341)", "assay": "In vitro enzyme inhibition assay LSD-1 (TR-FRET)", "type": "biochemical", "conditions": "H3K4me1-biotin peptide", "how_it_was_run": "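Demethylase activity of full-length human LSD1 was detected by TR-FRET after 1 hour incubation at room temperature. Excitation was at 320 nm, with emission at 615 nm and 665 nm. IC50 values were derived from the inhibition data.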"}},
  "data": [
    {"smiles": "COc1ccc(-n2c(-c3ccc(C#N)c(F)c3)nc(C(=O)N3CC[C@H](N)C3)c2C)cc1", "note": "[Example 14, 4-[4-[(3S)-3-aminopyrrolidine-1-carbonyl]-1-(4-methoxyphenyl)-5-methylimidazol-2-yl]-2-fluorobenzonitrile]", "values": [
      {"measurement": "IC50", "setting": "[1]", "result": "≤ 100", "unit": "nM"},
      {"measurement": "IC50", "setting": "[2]", "result": "< 100", "unit": "nM"},
      {"measurement": "IC50", "setting": "full-length human LSD1", "result": "< 100", "unit": "nM"}
    ]},
    {"smiles": "COc1ccc(-n2c(-c3ccc(C#N)c(F)c3)nc(C(=O)N3CC[C@H](N)C3)c2C)cc1F", "note": "[Example 18, 4-[4-[(3S)-3-aminopyrrolidine-1-carbonyl]-1-(3-fluoro-4-methoxyphenyl)-5-methylimidazol-2-yl]-2-fluorobenzonitrile]", "values": [
      {"measurement": "IC50", "setting": "[1]", "result": "≤ 100", "unit": "nM"}
    ]},
    {"smiles": "Cn1nc2ccc(-n3c(-c4ccc(C#N)c(F)c4)nc(C(=O)N4CCC[C@@H](N)C4)c3Cl)cc2c1Cl", "note": "[Example 76, 4-[4-[(3R)-3-Aminopiperidine-1-carbonyl]-5-chloro-1-(3-chloro-2-methylindazol-5-yl)imidazol-2-yl]-2-fluorobenzonitrile]", "values": [
      {"measurement": "IC50", "setting": "[1]", "result": "≤ 100", "unit": "nM"},
      {"measurement": "IC50", "setting": "[2]", "result": "< 100", "unit": "nM"},
      {"measurement": "IC50", "setting": "full-length human LSD1", "result": "< 100", "unit": "nM"}
    ]},
    {"smiles": "Cc1c(C(=O)N2CC[C@H](N(C)C)C2)nc(-c2ccc(C#N)c(F)c2)n1-c1ccc2nn(C)cc2c1", "note": "[Example 94, 4-[4-[(3S)-3-(Dimethylamino)pyrrolidine-1-carbonyl]-5-methyl-1-(2-methylindazol-5-yl)imidazol-2-yl]-2-fluorobenzonitrile]", "values": [
      {"measurement": "IC50", "setting": "[1]", "result": "≤ 100", "unit": "nM"}
    ]},
    {"smiles": "COc1ccc(-n2c(-c3ccc(C#N)c(F)c3)nc(C(=O)N3CCC[C@@H](N)C3)c2F)cc1F", "note": "[Example 67, 4-[4-[(3R)-3-Aminopiperidine-1-carbonyl]-5-fluoro-1-(3-fluoro-4-methoxyphenyl)imidazol-2-yl]-2-fluorobenzonitrile]", "values": [
      {"measurement": "IC50", "setting": "[1]", "result": "≤ 100", "unit": "nM"},
      {"measurement": "IC50", "setting": "[2]", "result": "< 100", "unit": "nM"},
      {"measurement": "IC50", "setting": "full-length human LSD1", "result": "< 100", "unit": "nM"}
    ]},
    {"smiles": "COc1ccc(-n2c(-c3ccc(C#N)c(F)c3)nc(C(=O)N3CCC[C@@H](N)C3)c2C)cc1F", "note": "[Example 16, 4-[4-[(3R)-3-aminopiperidine-1-carbonyl]-1-(3-fluoro-4-methoxyphenyl)-5-methylimidazol-2-yl]-2-fluorobenzonitrile]", "values": [
      {"measurement": "IC50", "setting": "[1]", "result": "≤ 100", "unit": "nM"}
    ]},
    {"smiles": "COc1ccc(-n2c(-c3ccc(C#N)c(F)c3)nc(C(=O)N3CC(CN)C3)c2C)cc1F", "note": "[Example 88, 4-[4-[3-(Aminomethyl)azetidine-1-carbonyl]-1-(3-fluoro-4-methoxyphenyl)-5-methylimidazol-2-yl]-2-fluorobenzonitrile]", "values": [
      {"measurement": "IC50", "setting": "[1]", "result": "≤ 100", "unit": "nM"}
    ]},
    {"smiles": "COc1ccc(-n2c(-c3ccc(C#N)c(F)c3)nc(C(=O)N3CCC[C@@H](N)C3)c2C)cc1", "note": "[Example 12, 4-[4-[(3R)-3-aminopiperidine-1-carbonyl]-1-(4-methoxyphenyl)-5-methylimidazol-2-yl]-2-fluorobenzonitrile]", "values": [
      {"measurement": "IC50", "setting": "[1]", "result": "≤ 100", "unit": "nM"}
    ]},
    {"smiles": "CN[C@@H]1CCCN(C(=O)c2nc(-c3ccc(C#N)c(F)c3)n(-c3ccc(OC)cc3)c2C)C1", "note": "[Example 70, 2-Fluoro-4-[1-(4-methoxyphenyl)-5-methyl-4-[(3R)-3-(methylamino)piperidine-1-carbonyl]imidazol-2-yl]benzonitrile]", "values": [
      {"measurement": "IC50", "setting": "[1]", "result": "≤ 100", "unit": "nM"},
      {"measurement": "IC50", "setting": "[2]", "result": "< 100", "unit": "nM"},
      {"measurement": "IC50", "setting": "full-length human LSD1", "result": "< 100", "unit": "nM"}
    ]},
    {"smiles": "Cc1c(C(=O)N2CCC3(CCN3)C2)nc(-c2ccc(C#N)c(F)c2)n1-c1ccc2c(cnn2C)c1", "note": "(stereo not drawn) [Example 92, 4-[4-(1,7-Diazaspiro[3.4]octane-7-carbonyl)-5-methyl-1-(1-methylindazol-5-yl)imidazol-2-yl]-2-fluorobenzonitrile]", "values": [
      {"measurement": "IC50", "setting": "[2]", "result": "100 to 1000", "unit": "nM"},
      {"measurement": "IC50", "setting": "full-length human LSD1", "result": "< 100", "unit": "nM"}
    ]},
    {"smiles": "CN[C@H]1CCN(C(=O)c2nc(-c3ccc(C#N)c(F)c3)n(-c3ccc(OC)c(F)c3)c2F)C1", "note": "[Example 68, 2-Fluoro-4-[5-fluoro-1-(3-fluoro-4-methoxyphenyl)-4-[(3S)-3-(methylamino)pyrrolidine-1-carbonyl]imidazol-2-yl]benzonitrile]", "values": [
      {"measurement": "IC50", "setting": "[2]", "result": "< 100", "unit": "nM"},
      {"measurement": "IC50", "setting": "full-length human LSD1", "result": "< 100", "unit": "nM"}
    ]},
    {"smiles": "Cc1c(C(=O)N2CC[C@H](N)C2)nc(-c2ccc(C#N)c(F)c2)n1-c1ccc(C2CC2)nc1", "note": "[Example 79, 4-[4-[(3S)-3-Aminopyrrolidine-1-carbonyl]-1-(6-cyclopropylpyridin-3-yl)-5-methylimidazol-2-yl]-2-fluorobenzonitrile]", "values": [
      {"measurement": "IC50", "setting": "[2]", "result": "< 100", "unit": "nM"},
      {"measurement": "IC50", "setting": "full-length human LSD1", "result": "< 100", "unit": "nM"}
    ]},
    {"smiles": "Cn1nc2ccc(-n3c(-c4ccc(C#N)c(F)c4)nc(C(=O)N4CCC[C@@H](N)C4)c3F)cc2c1Cl", "note": "[Example 61, 4-[4-[(3R)-3-Aminopiperidine-1-carbonyl]-1-(3-chloro-2-methylindazol-5-yl)-5-fluoroimidazol-2-yl]-2-fluorobenzonitrile]", "values": [
      {"measurement": "IC50", "setting": "[2]", "result": "< 100", "unit": "nM"},
      {"measurement": "IC50", "setting": "full-length human LSD1", "result": "< 100", "unit": "nM"}
    ]},
    {"smiles": "Cc1c2cc(-n3c(-c4ccc(C#N)c(F)c4)nc(C(=O)N[C@@H]4CCCNC4)c3C)ccc2nn1C", "note": "[Example 104, 2-(4-Cyano-3-fluorophenyl)-1-(2,3-dimethylindazol-5-yl)-5-methyl-N-[(3R)-piperidin-3-yl]imidazole-4-carboxamide]", "values": [
      {"measurement": "IC50", "setting": "[2]", "result": "< 100", "unit": "nM"},
      {"measurement": "IC50", "setting": "full-length human LSD1", "result": "< 100", "unit": "nM"}
    ]},
    {"smiles": "Cc1c(C(=O)N[C@@H]2CCCN(C)C2)nc(-c2ccc(C#N)c(F)c2)n1-c1ccc2nn(C)c(Cl)c2c1", "note": "[Example 56, 1-(3-Chloro-2-methylindazol-5-yl)-2-(4-cyano-3-fluorophenyl)-5-methyl-N-[(3R)-1-methylpiperidin-3-yl]imidazole-4-carboxamide]", "values": [
      {"measurement": "IC50", "setting": "[2]", "result": "< 100", "unit": "nM"},
      {"measurement": "IC50", "setting": "full-length human LSD1", "result": "< 100", "unit": "nM"}
    ]},
    {"smiles": "CN[C@H]1CCN(C(=O)c2nc(-c3ccc(C#N)c(F)c3)n(-c3ccc(OC)c(F)c3)c2C)C1", "note": "[Example 64, 2-Fluoro-4-[1-(3-fluoro-4-methoxyphenyl)-5-methyl-4-[(3S)-3-(methylamino)pyrrolidine-1-carbonyl]imidazol-2-yl]benzonitrile]", "values": [
      {"measurement": "IC50", "setting": "[1]", "result": "≤ 100", "unit": "nM"},
      {"measurement": "IC50", "setting": "[2]", "result": "< 100", "unit": "nM"},
      {"measurement": "IC50", "setting": "full-length human LSD1", "result": "< 100", "unit": "nM"}
    ]},
    {"smiles": "CN[C@@H]1CCCN(C(=O)c2nc(-c3ccc(C#N)c(F)c3)n(-c3ccc4nn(C)c(C)c4c3)c2C)C1", "note": "[Example 105, 4-[1-(2,3-Dimethylindazol-5-yl)-5-methyl-4-[(3R)-3-(methylamino)piperidine-1-carbonyl]imidazol-2-yl]-2-fluorobenzonitrile]", "values": [
      {"measurement": "IC50", "setting": "[2]", "result": "< 100", "unit": "nM"},
      {"measurement": "IC50", "setting": "full-length human LSD1", "result": "< 100", "unit": "nM"}
    ]},
    {"smiles": "COc1ccc(-n2c(-c3ccc(C#N)c(F)c3)nc(C(=O)N3CC[C@@H](N)C3)c2C)cc1", "note": "[Example 13, 4-[4-[(3R)-3-aminopyrrolidine-1-carbonyl]-1-(4-methoxyphenyl)-5-methylimidazol-2-yl]-2-fluorobenzonitrile]", "values": [
      {"measurement": "IC50", "setting": "[2]", "result": "100 to 1000", "unit": "nM"},
      {"measurement": "IC50", "setting": "full-length human LSD1", "result": "< 100", "unit": "nM"}
    ]},
    {"smiles": "Cc1c(C(=O)N2CC[C@H](N(C)C)C2)nc(-c2ccc(C#N)c(F)c2)n1-c1ccc2nn(C)c(Cl)c2c1", "note": "[Example 96, 4-[1-(3-Chloro-2-methylindazol-5-yl)-4-[(3S)-3-(dimethylamino)pyrrolidine-1-carbonyl]-5-methylimidazol-2-yl]-2-fluorobenzonitrile]", "values": [
      {"measurement": "IC50", "setting": "[1]", "result": "≤ 100", "unit": "nM"},
      {"measurement": "IC50", "setting": "[2]", "result": "< 100", "unit": "nM"},
      {"measurement": "IC50", "setting": "full-length human LSD1", "result": "< 100", "unit": "nM"}
    ]}
  ]
}
